According to publication PMC10987949, “Inhibition of HIV-1 release by ADAM metalloproteinase inhibitors” (Frontiers in Microbiology, 2024):
Entries after “also recorded” stand apart in the source; their conditions may differ. Where two headings read alike, the source gives them in different places.

Legend:
[1] = system: CD62L shedding; assay: Soluble CD62L ELISA, unstimulated PBMC; assay type: cell-based, human; settings: Homo sapiens, PBMC, read-out: Shedding inhibition Non-stim.
[2] = target: T1, recombinant ADAM10 (Homo sapiens, UniProt O14672); assay: Kinetic cleavage of fluorogenic TNF-α peptide ES003 by recombinant ADAM10; assay type: biochemical; settings: for inhibition of ADAM10 cleavage of ES003: 2 μM compound; for Ki: ES003 substrate, 4-h time point, non-linear regression, read-out: Inhibition constant Ki ADAM10
T1 construct: purchased R&D systems, Inc
T1 sequence (O14672 214-748): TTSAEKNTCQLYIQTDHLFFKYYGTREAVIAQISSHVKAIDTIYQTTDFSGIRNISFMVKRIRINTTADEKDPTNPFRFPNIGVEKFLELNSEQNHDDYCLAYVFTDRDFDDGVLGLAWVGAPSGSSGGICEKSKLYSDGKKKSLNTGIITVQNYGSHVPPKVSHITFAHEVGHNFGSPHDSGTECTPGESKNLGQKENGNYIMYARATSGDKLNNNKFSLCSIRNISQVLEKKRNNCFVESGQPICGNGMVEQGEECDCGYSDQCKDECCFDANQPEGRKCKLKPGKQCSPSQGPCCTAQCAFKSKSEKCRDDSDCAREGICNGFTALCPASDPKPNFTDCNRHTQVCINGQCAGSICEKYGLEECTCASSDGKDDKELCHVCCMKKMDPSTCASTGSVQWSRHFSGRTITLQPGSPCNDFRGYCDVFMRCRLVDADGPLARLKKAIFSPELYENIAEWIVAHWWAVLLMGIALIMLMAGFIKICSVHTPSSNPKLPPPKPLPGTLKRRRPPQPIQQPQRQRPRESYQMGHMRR
From the text: A fluorescence based enzymatic assay was used to measure the cleavage of fluorogenic TNF-α and L-selectin (CD62L) peptides by either recombinant ADAMs or PBMC from healthy donors. The fluorogenic substrate, synthesized by Biomatik^3, was a Dabcyl (4-(4-dimethylaminophenylazo)benzoyl)- and Edans (5-[(2-aminoethyl)amino]naphthalene-1-sulfonic acid)- conjugated 12 amino acid peptide: Dabcyl-[…]-Edans that corresponds to the extracellular membrane proximal region of CD62L. […] The cleavage was measured in a kinetic assay every 3 min for 4 h in black 96-well plates using a Synergy_h1 fluorescent plate reader (BioTek) with 340 nm excitation and 490 nm emission wavelengths. […] PBMC were stimulated with anti-CD3 antibody for 2–4 days as described above.
96-well plate with data recorded every 3 minutes for 4 hours using a Synergy_h1 fluorescent plate reader. Each enzymatic reaction contained 50 -200 ng
Figure 2B and 2C bar diagrams are generated using the
data points at 4 hour time point of the enzymatic cleavages.

[3] = system: PBMC; assay: PBMC viability (AO/PI staining); assay type: cell-based, human; settings: for PBMC viability at 24hr post treatment: 10-500 μM of MMP inhibitors for 24hours; for impact on cell viabilities in HIV-1BAL infection: PBMC post infection with HIV-1BAL
Description: PBMC from de-identified healthy donors were obtained with informed consent from the Department of Transfusion Medicine, National Institutes of Health under Biological reagent Registry RD-14-IX-12 approved by NIH biological safety board. CD8-depleted PBMCs, either stimulated or non-stimulated with 10 μg/mL phytohaemagglutinin (PHA) or anti-CD3 antibody (with or without conjugated beads), were plated at 2×10^6 cells/ml in 48 well plates in RPMI 1640 + 10%FBS (R10) to a final volume of 1 mL in each well. IL-2 was added at a final concentration of 20 U/mL. CD3 antibody okt3 was used at ~0.2 μg/mL final concentration. Compounds were prepared in appropriate solvents according to the manufacturer’s instructions, diluted to working concentrations using RPMI 1640 + 10%FBS (R10), and added to the cell cultures for 6–24 h for CD62L shedding, and 48 h for TNF-α release. Supernatants were collected and assessed using either the CD62L or TNF-α Duo Set ELISA kit according to manufacturer’s instructions (R&D Systems, Inc.). The viability of cells treated with compounds was assessed by acridine orange / propidiom iodide (AO/PI Logosbio catalog F23001) staining using Luna-FL cell counter following the manufacture’s instruction.^2

[4] = 10 μM compound, non-stimulated cells, ELISA

Row | SMILES | inhibition at 10 µM [1] | concentrations inhibiting ADAM10 enzymatic activity [2] | inhibition of ADAM10 cleavage of ES003 [2] | PBMC viability at 24hr post treatment [3] | impact on cell viabilities in HIV-1BAL infection [3] | inhibition at 10 µM [1, 4] | Ki [2]
1 | CNC(=O)[C@H](Cc1ccccc1)NC(=O)[C@H](CC(C)C)[C@H](CSc1cccs1)C(=O)NO [BB-94, Batimastat] | > 50% | 20 to 50 nM | inhibited both ADAM10 and 17; also recorded: indistinguishable from that of ES003-only curve without the enzyme | No significant decrease in the viability | without significant impact to cell viabilities |  | 
2 | CC1(C)SCCN(S(=O)(=O)c2ccc(Oc3ccncc3)cc2)[C@H]1C(=O)NO [prinomastat] |  | 20 to 50 nM | inhibited both ADAM10 and 17 |  | without significant impact to cell viabilities | > 50% | 2 ± 0.4 nM
3 | CNC(=O)[C@@H](NC(=O)[C@H](CCCc1ccccc1)[C@H](C)N(O)C=O)C(C)(C)C [GI254023X] |  |  | preferentially inhibited the enzymatic activity of ADAM10 compared to ADAM17 | No significant decrease in the viability |  | 20 to 50% | 11 ± 9 nM
